This is an account of results in US20240360082A1, “SUBSTITUTED PYRIDONE COMPOUNDS USEFUL TO TREAT ORTH[…]” (priority 2021, published 2024).

The target in the first experiment is influenza A virus minigenome (PB2, PB1, PA, NP proteins) (UniProt P04665). The experiment is classed as cell-based. The conditions noted are these: read-out: RNP_ Hubei B IC50.
Chain of influenza A virus minigenome (PB2, PB1, PA, NP proteins) (P04665 whole entry): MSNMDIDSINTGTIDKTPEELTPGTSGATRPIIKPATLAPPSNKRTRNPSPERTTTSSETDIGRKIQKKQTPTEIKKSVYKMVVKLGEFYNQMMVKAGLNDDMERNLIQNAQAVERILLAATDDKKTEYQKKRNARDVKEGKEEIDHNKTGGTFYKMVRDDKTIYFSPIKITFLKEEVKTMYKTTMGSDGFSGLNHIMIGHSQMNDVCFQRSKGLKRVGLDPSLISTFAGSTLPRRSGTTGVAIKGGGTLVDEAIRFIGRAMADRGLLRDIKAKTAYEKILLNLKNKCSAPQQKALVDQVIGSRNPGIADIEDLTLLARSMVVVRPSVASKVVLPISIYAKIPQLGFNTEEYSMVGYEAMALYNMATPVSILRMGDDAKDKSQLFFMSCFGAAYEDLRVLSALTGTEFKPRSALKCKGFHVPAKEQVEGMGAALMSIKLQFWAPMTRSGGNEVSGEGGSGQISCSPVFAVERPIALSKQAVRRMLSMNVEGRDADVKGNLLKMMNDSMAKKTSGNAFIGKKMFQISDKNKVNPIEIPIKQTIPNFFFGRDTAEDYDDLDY
`NC(=O)c1cc(-c2ccc(OCC3COCC(COCC4CC4)O3)cc2)c(C(F)(F)F)[nH]c1=O` (single isomer, unassigned) [Example 362, 5-(4-((6-((cyclopropylmethoxy)methyl)-1,4-dioxan-2-yl)methoxy)phenyl)-2-oxo-6-(trifluoromethyl)-1,2-dihydropyridine-3-carboxamide]: the IC50 fell in the range of 5 to 10 µM.

Regarding `NC(=O)c1cc(-c2ccc(OCC3COCC(COCC4CC4)O3)cc2)c(C(F)(F)F)[nH]c1=O` (single isomer, unassigned) [Example 363, 5-(4-((6-((cyclopropylmethoxy)methyl)-1,4-dioxan-2-yl)methoxy)phenyl)-2-oxo-6-(trifluoromethyl)-1,2-dihydropyridine-3-carboxamide], the IC50 lay within 5 to 10 µM.

With `NC(=O)c1cc(-c2ccc(OCC3COCC(COCC4(F)CC4)O3)cc2)c(C(F)(F)F)[nH]c1=O` (single isomer, unassigned) [Example 364, 5-(4-((6-(((1-fluorocyclopropyl)methoxy)methyl)-1,4-dioxan-2-yl)methoxy)phenyl)-2-oxo-6-(trifluoromethyl)-1,2-dihydropyridine-3-carboxamide], the IC50 is 5 to 10 µM.

`NC(=O)c1cc(-c2ccc(OCC3COCC(COCC4(F)CC4)O3)cc2)c(C(F)(F)F)[nH]c1=O` (single isomer, unassigned) [Example 365, 5-(4-((6-(((1-fluorocyclopropyl)methoxy)methyl)-1,4-dioxan-2-yl)methoxy)phenyl)-2-oxo-6-(trifluoromethyl)-1,2-dihydropyridine-3-carboxamide]: the IC50 is 5 to 10 µM.

For `NC(=O)c1cc(-c2ccc(OCC3COCC(COC4CC(F)(F)C4)O3)cc2)c(C(F)(F)F)[nH]c1=O` (single isomer, unassigned) [Example 366, 5-(4-((6-((3,3-difluorocyclobutoxy)methyl)-1,4-dioxan-2-yl)methoxy)phenyl)-2-oxo-6-(trifluoromethyl)-1,2-dihydropyridine-3-carboxamide], the IC50 lay within 5 to 10 µM.

For `NC(=O)c1cc(-c2ccc(OCC3COCC(COC4CC(F)(F)C4)O3)cc2)c(C(F)(F)F)[nH]c1=O` (single isomer, unassigned) [Example 367, 5-(4-((6-((3,3-difluorocyclobutoxy)methyl)-1,4-dioxan-2-yl)methoxy)phenyl)-2-oxo-6-(trifluoromethyl)-1,2-dihydropyridine-3-carboxamide], the IC50 was 5 to 10 µM.

On to `NC(=O)c1cc(-c2ccc(OCC3COCC(COCC(F)F)O3)cc2)c(C(F)(F)F)[nH]c1=O` (single isomer, unassigned) [Example 368, 5-(4-((6-((2,2-difluoroethoxy)methyl)-1,4-dioxan-2-yl)methoxy)phenyl)-2-oxo-6-(trifluoromethyl)-1,2-dihydropyridine-3-carboxamide], for which the IC50 fell in the range of 5 to 10 µM.

On to `NC(=O)c1cc(-c2ccc(OCC3COCC(COCC(F)F)O3)cc2)c(C(F)(F)F)[nH]c1=O` (single isomer, unassigned) [Example 369, 5-(4-((6-((2,2-difluoroethoxy)methyl)-1,4-dioxan-2-yl)methoxy)phenyl)-2-oxo-6-(trifluoromethyl)-1,2-dihydropyridine-3-carboxamide], for which the IC50 is 5 to 10 µM.

As for `COC(C)(C)COCC1COCC(COc2ccc(-c3cc(C(N)=O)c(=O)[nH]c3C(F)(F)F)cc2)O1` (single isomer, unassigned) [Example 370, 5-(4-((6-((2-methoxy-2-methylpropoxy)methyl)-1,4-dioxan-2-yl)methoxy)phenyl)-2-oxo-6-(trifluoromethyl)-1,2-dihydropyridine-3-carboxamide], the IC50 fell in the range of 5 to 10 µM.

For `COC(C)(C)COCC1COCC(COc2ccc(-c3cc(C(N)=O)c(=O)[nH]c3C(F)(F)F)cc2)O1` (single isomer, unassigned) [Example 371, 5-(4-((6-((2-methoxy-2-methylpropoxy)methyl)-1,4-dioxan-2-yl)methoxy)phenyl)-2-oxo-6-(trifluoromethyl)-1,2-dihydropyridine-3-carboxamide], the IC50 was 5 to 10 µM.

As to `NC(=O)c1cc(-c2ccc(OCC3COCC(COC(F)(F)F)O3)cc2)c(C(F)(F)F)[nH]c1=O` (single isomer, unassigned) [Example 372, 2-oxo-5-(4-((6-((trifluoromethoxy)methyl)-1,4-dioxan-2-yl)methoxy)phenyl)-6-(trifluoromethyl)-1,2-dihydropyridine-3-carboxamide], the IC50 lay within 1 to 5 µM.

Take `NC(=O)c1cc(-c2ccc(OCC3COCC(COC(F)(F)F)O3)cc2)c(C(F)(F)F)[nH]c1=O` (single isomer, unassigned) [Example 373, 2-oxo-5-(4-((6-((trifluoromethoxy)methyl)-1,4-dioxan-2-yl)methoxy)phenyl)-6-(trifluoromethyl)-1,2-dihydropyridine-3-carboxamide]: the IC50 was 5 to 10 µM.

As to `NC(=O)c1cc(-c2ccc(OCC3COCC(Cn4cccc4)O3)cc2)c(C(F)(F)F)[nH]c1=O` (single isomer, unassigned) [Example 374, 5-(4-((6-((1H-pyrrol-1-yl)methyl)-1,4-dioxan-2-yl)methoxy)phenyl)-2-oxo-6-(trifluoromethyl)-1,2-dihydropyridine-3-carboxamide], the IC50 lay within 5 to 10 µM.

With `NC(=O)c1cc(-c2ccc(OCC3COCC(Cn4cccc4)O3)cc2)c(C(F)(F)F)[nH]c1=O` (single isomer, unassigned) [Example 375, 5-(4-((6-((1H-pyrrol-1-yl)methyl)-1,4-dioxan-2-yl)methoxy)phenyl)-2-oxo-6-(trifluoromethyl)-1,2-dihydropyridine-3-carboxamide], the IC50 was in the range of 5 to 10 µM.

As for `NC(=O)c1cc(-c2ccc(OCC3COCC(Cn4cccn4)O3)cc2)c(C(F)(F)F)[nH]c1=O` (single isomer, unassigned) [Example 376, 5-(4-((6-((1H-pyrazol-1-yl)methyl)-1,4-dioxan-2-yl)methoxy)phenyl)-2-oxo-6-(trifluoromethyl)-1,2-dihydropyridine-3-carboxamide], the IC50 lay within 5 to 10 µM.

As to `NC(=O)c1cc(-c2ccc(OCC3COCC(Cn4cccn4)O3)cc2)c(C(F)(F)F)[nH]c1=O` (single isomer, unassigned) [Example 377, 5-(4-((6-((1H-pyrazol-1-yl)methyl)-1,4-dioxan-2-yl)methoxy)phenyl)-2-oxo-6-(trifluoromethyl)-1,2-dihydropyridine-3-carboxamide], the IC50 was 5 to 10 µM.

With `CC1(OCC2COCC(COc3ccc(-c4cc(C(N)=O)c(=O)[nH]c4C(F)(F)F)cc3)O2)COC1` (single isomer, unassigned) [Example 378], the IC50 was 5 to 10 µM.

With `CC1(OCC2COCC(COc3ccc(-c4cc(C(N)=O)c(=O)[nH]c4C(F)(F)F)cc3)O2)COC1` (single isomer, unassigned) [Example 379], the IC50 fell in the range of 5 to 10 µM.

As for `COCC1OC(COc2ccc(-c3cc(C(N)=O)c(=O)[nH]c3C(F)(F)F)cc2)COC1C` (single isomer, unassigned) [Example 392, 5-(4-((6-(methoxymethyl)-5-methyl-1,4-dioxan-2-yl)methoxy)phenyl)-2-oxo-6-(trifluoromethyl)-1,2-dihydropyridine-3-carboxamide], the IC50 lay in the range of 5 to 10 µM.

`COCC1OC(COc2ccc(-c3cc(C(N)=O)c(=O)[nH]c3C(F)(F)F)cc2)COC1C` (single isomer, unassigned) [Example 393, 5-(4-((6-(methoxymethyl)-5-methyl-1,4-dioxan-2-yl)methoxy)phenyl)-2-oxo-6-(trifluoromethyl)-1,2-dihydropyridine-3-carboxamide]: the IC50 lay within 5 to 10 µM.

On to `COC[C@@H]1COC[C@H](COc2ccc(-c3cc(C(N)=O)c(=O)[nH]c3C(F)(F)F)cc2)O1` (single isomer, unassigned) [Example 400], for which the IC50 fell in the range of 5 to 10 µM.

As for `COC[C@H]1COC[C@H](COc2ccc(-c3cc(C(N)=O)c(=O)[nH]c3C(F)(F)F)cc2)O1` (single isomer, unassigned) [Example 401], the IC50 lay in the range of 5 to 10 µM.

Still in this experiment, the particulars now being: read-out: RNP_Hubei B.
On to `NC(=O)c1cc(-c2ccc(CN3CCOCC3)cc2)c(C(F)(F)F)[nH]c1=O` [Example 1, 5-(4-(morpholinomethyl)phenyl)-2-oxo-6-(trifluoromethyl)-1,2-dihydropyridine-3-carboxamide], for which the IC50 was 25 to 50 µM.

Regarding `NC(=O)c1cc(-c2ccc(CO)cc2)c(C(F)(F)F)[nH]c1=O` [Example 2, 5-(4-(hydroxymethyl)phenyl)-2-oxo-6-(trifluoromethyl)-1,2-dihydropyridine-3-carboxamide], the IC50 was 25 to 50 µM.

On to `NC(=O)c1cc(-c2ccc(O)cc2)c(C(F)(F)F)[nH]c1=O` [Example 3, 5-(4-hydroxyphenyl)-2-oxo-6-(trifluoromethyl)-1,2-dihydropyridine-3-carboxamide], for which the IC50 was in the range of 25 to 50 µM.

`NC(=O)c1cc(-c2ccc(OCc3ccccc3)cc2)c(C(F)(F)F)[nH]c1=O` [Example 4, 5-(4-(benzyloxy)phenyl)-2-oxo-6-(trifluoromethyl)-1,2-dihydropyridine-3-carboxamide]: the IC50 lay in the range of 5 to 10 µM.

Regarding `NC(=O)c1cc(-c2ccc(CN3CCCC3)cc2)c(C(F)(F)F)[nH]c1=O` [Example 5, 2-oxo-5-(4-(pyrrolidin-1-ylmethyl)phenyl)-6-(trifluoromethyl)-1,2-dihydropyridine-3-carboxamide], the IC50 lay within 25 to 50 µM.

As for `NC(=O)c1cc(-c2ccc(Oc3ccccc3)cc2)c(C(F)(F)F)[nH]c1=O` [Example 6, 2-oxo-5-(4-phenoxyphenyl)-6-(trifluoromethyl)-1,2-dihydropyridine-3-carboxamide], the IC50 fell in the range of 1 to 5 µM.

Regarding `NC(=O)c1cc(-c2cccc(N)c2)c(C(F)(F)F)[nH]c1=O` [Example 7, 5-(3-aminophenyl)-2-oxo-6-(trifluoromethyl)-1,2-dihydropyridine-3-carboxamide], the IC50 is 25 to 50 µM.

Consider `NC(=O)c1cc(-c2cccc(O)c2)c(C(F)(F)F)[nH]c1=O` [Example 9, 5-(3-hydroxyphenyl)-2-oxo-6-(trifluoromethyl)-1,2-dihydropyridine-3-carboxamide], for which the IC50 lay in the range of 25 to 50 µM.

For `COCOc1ccc(-c2cc(C(N)=O)c(=O)[nH]c2C(F)(F)F)cc1` [Example 13, 5-(4-(methoxymethoxy)phenyl)-2-oxo-6-(trifluoromethyl)-1,2-dihydropyridine-3-carboxamide], the IC50 lay in the range of 25 to 50 µM.
